The values below come from patent US20260102499A1, “COMPOSITIONS WITH REDUCED N[…]” (INVENTIA HEALTHCARE LIMITED, priority 2022, published 2026).

For series [1] the following is noted: per day, as published by Health Canada; cited from earlier work.
Series [2] can be described thus: Acceptable intake / acceptable level of nitrosamine impurities (Health Canada). The conditions noted are these: based on a maximum daily dose of 2 mg for varenicline. From the text:
International regulators such as United States Food and Drug Administration (USFDA), European Medicine Agency (EMA), and Health Canada have published recommendations with respect to ‘acceptable intake’ of nitrosamine impurities. ‘Acceptable intake’ (per day) of nitrosamine impurities varies with the impurity structure, molecular weight, and its toxicity potential. Table 1 illustrates the per day ‘acceptable intake’ of some nitrosamine impurities, as published by Health Canada.
‘Acceptable intake’ of a nitrosamine impurity, when applied to the maximum daily dose of a drug, provides ‘acceptable levels’ of the said nitrosamine impurity in pharmaceutical compositions containing the said drug. ‘Acceptable levels’ of a nitrosamine impurity are expressed in parts per million (ppm) or parts per billion (ppb), of the drug (by weight). For example, for varenicline (which contains amine), the ‘acceptable intake’ of the N-nitroso-varenicline (NNV) (nitrosamine impurity of the NDSRI type) is 37 ng/day, and the ‘acceptable level’ of NNV is 18.5 ppm based on a maximum daily dose of 2 mg for varenicline.

Values joined by “and” are separate entries in the source; they are usually repeats but may differ in a detail not shown here. Equal values may be shown once.

Consider `O=NN1CCn2c(nnc2C(F)(F)F)C1` [7-Nitroso-3-(trifluoromethyl)-5,6,7,8-tetrahydro[1,2,4]triazolo-[4,3-a]pyrazine], for which the “Acceptable Intake (AI) Levels” value in series [1] is listed as 37.0 ng/day.
In the case of `CCCCN(CCCC)N=O` [N-nitroso-dibutylamine (NDBA), N-nitroso-dibutylamine], the “Acceptable Intake (AI) Levels” value in series [1] is given as 26.5 ng/day.
Consider `CN1CCN(N=O)CC1` [1-methyl-4-nitrosopiperazine (MNP), 1-methyl-4-nitrosopiperazine], for which the “Acceptable Intake (AI) Levels” value in series [1] is 96.0 ng/day.
For `CC(C)N(N=O)C(C)C` [N-nitroso-diisopropylamine (NDIPA), N-nitroso-diisopropylamine], the “Acceptable Intake (AI) Levels” value in series [1] is given as 26.5 ng/day.
As to `O=NN1CCOCC1` [N-nitrosomorpholine (NMOR), N-nitrosomorpholine], the “Acceptable Intake (AI) Levels” value in series [1] is given as 127.0 ng/day.
With `C#CCN(N=O)[C@@H]1CCc2ccccc21` [N-nitroso-rasagiline], the “Acceptable Intake (AI) Levels” value in series [1] was 18.0 ng/day.
On to `CCN(N=O)C(C)C` [N-nitroso-ethylisopropylamine (NEIPA), N-nitroso-ethylisopropylamine], for which, in series [1], the “Acceptable Intake (AI) Levels” value was 26.5 ng/day.
`CN(C)N=O` [N-nitroso-dimethylamine (NDMA), N-nitroso-dimethylamine]: the “Acceptable Intake (AI) Levels” value in series [1] is 96.0 ng/day.
In the case of `CCCN(CCC)N=O` [N-nitroso-dipropylamine (NDPA), N-nitroso-dipropylamine], the “Acceptable Intake (AI) Levels” value in series [1] was 26.5 ng/day.
With `O=NN1CCCCC1` [N-nitroso-piperidine], the “Acceptable Intake (AI) Levels” value in series [1] is recorded as 1300.0 ng/day.
For the compound `COC(=O)C(c1ccccc1)C1CCCCN1N=O` (stereo not shown) [N-nitroso-methylphenidate], in series [1], the “Acceptable Intake (AI) Levels” value is recorded as 1300.0 ng/day.
Consider `O=NN1CC=CCC1` [N-nitroso-1,2,3,6-tetrahydropyridine], for which the “Acceptable Intake (AI) Levels” value in series [1] was 37.0 ng/day.
Regarding `CN(CCCC(=O)O)N=O` [N-nitroso-4-(methylamino)butyric acid], the “Acceptable Intake (AI) Levels” value in series [1] is 96.0 ng/day.
Regarding `CN(CCc1ccccc1)N=O` [N-methyl-N-nitroso-phenethylamine], the “Acceptable Intake (AI) Levels” value in series [1] was 8.0 ng/day.
Turning to `CN(CCC=C1c2ccccc2CCc2ccccc21)N=O` [N-nitroso-nortriptyline (NNORT), N-nitroso-nortriptyline], the “Acceptable Intake (AI) Levels” value in series [1] is 8.0 ng/day.
With `CN(CC[C@H](Oc1cccc2ccccc12)c1cccs1)N=O` [N-nitroso-duloxetine (NDLX), N-nitroso-duloxetine], the “Acceptable Intake (AI) Levels” value in series [1] is listed as 100.0 ng/day.
Regarding `O=NN1CC2CC(C1)c1cc3nccnc3cc12` [N-nitroso-varenicline (NNV), N-nitroso-varenicline], the “Acceptable Intake (AI) Levels” value in series [1] is 37 ng/day and 37.0 ng/day. Also, the “acceptable level of NNV” value in series [2] was 18.5 ppm.
Turning to `CCN(CC)N=O` [N-nitroso-diethylamine (NDEA), N-nitroso-diethylamine], the “Acceptable Intake (AI) Levels” value in series [1] is recorded as 26.5 ng/day.
